Results reported in patent publication US20220023454A1, “PHOTODYNAMIC METHOD TO DECONTAMINATE SURFACES” (priority 2020, published 2022).

Columns and labels:
[1] = tested on: feline calicivirus (FCV); assay: Photodynamic inactivation of FCV in water with photosensitizer and light; details: for log reduction in FCV: 3 minute exposure; for efficacy against FCV: photodynamic treatment, under the conditions tested (10, 25, 50 μM PS; light exposure)
Experimental: (§1) The inactivation of HuNoV surrogates (e.g., feline calicivirus (FCV) and Tulane virus (TuV)) was studied, by exposure to light in the presence of photosensitizer dyes in water, FCV and TuV were mixed with different concentrations (10, 25, and 50 μM) of three different PS (Rose Bengal (RB), Phloxine B (Ph-B) and chlorophyllin) and then exposed to light for a period of time, e.g., 1, 3, 5, or 10 minutes. While not being limited to a mode of action, capsid integrity and/or genome integrity may be impacted by the exposure of viruses to light in the presence of the PS.
(§2) Shellfish and fresh produce are the most frequent foods implicated in human norovirus (HuNoV) outbreaks in the US. Decontamination of virus-contaminated waters used in depuration of oysters, clams or mussels, and in post-harvest washing of fresh produce, is a mitigation strategy for this human biothreat risk. […] Although the PDT has been studied extensively for bacterial inactivation, studies on its use for viral inactivation in food and water are scarce. Inactivation of >4 log TCID50 of two HuNoV surrogates (feline calicivirus (FCV) and Tulane virus (TuV)) in water was observed upon exposure to LED-blue light for 3 to 10 min using Rose Bengal (RB) or Phloxine-B (Ph-B) as photosensitizers. The virucidal effect of PDT may depend on the type of treated virus, the light source, the type and concentration of the photosensitizer (PS), and the operational parameters such as the distance between the light source and treated object and/or exposure time.

[2] = tested on: Tulane virus (TuV); assay: Photodynamic inactivation of TuV in water with photosensitizer and light; details: for efficacy against TuV: photodynamic treatment, under the conditions tested (10, 25, 50 μM PS; light exposure)
Experimental: as §1, §2

[3] = tested on: Gram positive or Gram negative bacterial suspension, e.g., E. coli, Salmonella enterica, Staphylococcus aureus, or Bacillus subtilis; assay: Decontamination of lettuce leaves and stainless-steel discs spiked with bacteria, blue LED light, agar plate count; details: 50 μM Phloxin-B, 1 cm distance, blue LED 1, 3, 5, and 10 minutes; lettuce leaf or stainless-steel surface
Experimental: Romaine lettuce leaves are cut into small squares (2×2 cm) and then are disinfected using 300 ppm sodium hypochlorite followed by rinsing three times with sterilized distilled water. Sterile stainless-steel discs are also used as a model for surface decontamination. Each sample is spiked with 50 μL of a Gram positive or Gram negative bacterial suspension, e.g., E. coli, Salmonella enterica, Staphylococcus aureus, or Bacillus subtilis, then dried for 30 minutes. 100 μL of a 50 μM Phloxin-B solution is then added to each spiked leaf or stainless-steel surface. The samples are exposed at a 1 cm distance to the blue LED light source for 1, 3, 5, and 10 minutes. After each exposure time any surviving bacterial cells are recovered in 500 μL of recovery buffer followed by vortexing for 0.5 to 1 minute. The surviving bacterial cells are enumerated using Agar plate count technique. A ≥3 log reduction in the bacterial cell counts is observed.

[4] = tested on: FCV; assay: Virus added to light-preexposed Ph-B solution, cell culture titration; design: species or system feline calicivirus; details: 50 μM Phloxin-B pre-exposed to blue LED light 1-10 min; 1 to 5 min contact
Experimental: (§3) Several 50 μM stocks of Phloxin-B solution are prepared (500 μL each). Each stock is pre-exposed to the blue LED light for specific times (e.g., 1, 2, 3, 5, and 10 min). Immediately after light exposure, 50 μL of the tested virus (FCV, TuV, and TGEV) is added to the light-preexposed Ph-B solution for about 1 to 5 min contact times before titrating the surviving virus using a cell culture assay. A >3 log reduction in the virus titer is observed.

[5] = tested on: TuV; assay: as above; design: species or system Tulane virus; details: 50 μM Phloxin-B pre-exposed to blue LED light 1-10 min; 1 to 5 min contact
Experimental: as §3

[6] = tested on: TGEV; assay: as above; design: species or system transmissible gastroenteritis virus; details: 50 μM Phloxin-B pre-exposed to blue LED light 1-10 min; 1 to 5 min contact
Experimental: as §3

Molecule	log reduction in FCV ([1]; 50 μM Ph-B)	efficacy against FCV [1]	log reduction in TuV ([2]; 5 minute exposure, 50 μM Ph-B)	efficacy against TuV [2]	log reduction in the bacterial cell counts [3]	log reduction in the virus titer (FCV) [4]	log reduction in the virus titer (TuV) [5]	log reduction in the virus titer (TGEV) [6]	log reduction in FCV ([1]; 25 μM RB)	log reduction in TuV ([2]; 10 minute exposure, 50 μM RB)
O=C([O-])c1c(Cl)c(Cl)c(Cl)c(Cl)c1-c1c2cc(Br)c(=O)c(Br)c-2oc2c(Br)c([O-])c(Br)cc12.[Na+].[Na+] [Ph-B, Phloxine B]	4 log	high efficacy	4 log	high efficacy	≥ 3 log	> 3 log	> 3 log	> 3 log		
O=C1OC2(c3cc(I)c(O)c(I)c3Oc3c2cc(I)c(O)c3I)c2c(Cl)c(Cl)c(Cl)c(Cl)c21 [RB, Rose Bengal]		high efficacy		high efficacy					4 log	4 log
chlorophyllin		low efficacy								
